From patent publication US11339181B2, “Crystalline forms of a Janus kinase inhibitor” (Japan Tobacco Inc., priority 2016, dated 2022)
In brackets after ≈: the same amount, converted by molar mass.

Test: Solubility test (shaken at 20° C. for 3 hours, filtered, HPLC)
Assay type: physicochemical
Settings: for solubility at 3 h: 20 °C, thermodynamic from solid; for solubility at 3 h / Solubility: 20° C., shaken 3 hours; for Solubility rank among Forms α, β, γ: in each solvent measured
Protocol: Each sample (i.e., Forms α, β, and γ of Compound A) was weighed to a 4-mL-volume glass vial. A test solution (3 mL) was added to the vial and the mixture was suspended. About 150 mg of the sample was weighed for the test solution of the 1st fluid for solubility test of The Japanese Pharmacopoeia and about 15 mg was weighed for the test solutions of the 2nd fluid for solubility test of The Japanese Pharmacopoeia and water. Each mixture was shaken with a constant temperature incubator shaker (manufactured by TAITEC) at 20° C. for 3 hours. After being shaken, the supernatant was filtered through a polytetrafluoroethylene disk filter (Millex-LG; manufactured by Millipore) with the 0.2-μm pore size and 4-mm diameter. The measurement was performed by high-performance liquid chromatography (HPLC).

[1] = Solvent: JP 1st fluid for solubility test, pH about 1.2
[2] = Solvent: JP 2nd fluid for solubility test (water / phosphate buffer pH 6.8, 1:1)

| SMILES | solubility at 3 h (JP 1st fluid for solubility test, pH 1.2, simulated gastric fluid, Solvent: JP 1st fluid for solubility test, pH about 1.2) | solubility at 3 h (JP 2nd fluid for solubility test, pH 6.8, aqueous buffer, Solvent: JP 2nd fluid for solubility test (water / phosphate buffer pH 6.8, 1:1)) | Solubility rank among Forms α, β, γ | solubility at 3 h (water, water, Solvent: Water) | Solubility [1] | Solubility [2] | Solubility (Solvent: Water) |
| --- | --- | --- | --- | --- | --- | --- | --- |
| C[C@H]1CN(C(=O)CC#N)[C@]12CCN(c1ncnc3[nH]ccc13)C2 [Form α, 3-((3S,4R)-3-methyl-6-(7H-pyrrolo[2,3-d]pyrimidin-4-yl)-1,6-diazaspiro[3.4]octan-1-γ 1)-3-oxopropanenitrile] | 45000 µg/mL (≈ 145 mM) | 2700 µg/mL (≈ 8.7 mM) | highest solubility | 2600 µg/mL (≈ 8.38 mM) |  |  |  |
| C[C@H]1CN(C(=O)CC#N)[C@]12CCN(c1ncnc3[nH]ccc13)C2 [Form γ, 3-((3S,4R)-3-methyl-6-(7H-pyrrolo[2,3-d]pyrimidin-4-yl)-1,6-diazaspiro[3.4]octan-1-γ 1)-3-oxopropanenitrile] |  |  | lowest solubility |  | 36400 µg/mL (≈ 117 mM) | 1500 µg/mL (≈ 4.83 mM) | 1500 µg/mL (≈ 4.83 mM) |
| C[C@H]1CN(C(=O)CC#N)[C@]12CCN(c1ncnc3[nH]ccc13)C2 [Form β, 3-((3S,4R)-3-methyl-6-(7H-pyrrolo[2,3-d]pyrimidin-4-yl)-1,6-diazaspiro[3.4]octan-1-γ 1)-3-oxopropanenitrile] |  |  |  |  | 39100 µg/mL (≈ 126 mM) | 2100 µg/mL (≈ 6.77 mM) | 2000 µg/mL (≈ 6.44 mM) |
